# Reference: ChEMBL document CHEMBL1151474, “Replication of Colonic Crohn's Disease Mucosal Escherichia coli Isolates within Macrophages and Their Susceptibility to Antibiotics” (Antimicrob Agents Chemother, 2008)
# Active and inactive are the calls of the source. The rule behind the calls is not given here.
# Key:
# Escherichia coli [1] = test: Antibacterial activity against Escherichia coli isolates isolated from patients with Crohn's disease at 5 ug/disk by susceptibility testing disk method; type: functional
# Escherichia coli [2] = test: Antibacterial activity against Escherichia coli isolate HM154 isolated from colonic mucosal biopsies of patient with Crohn's disease after 24 hrs by Etest antibiotic concentration gradient method; type: functional; details: isolate HM154, 24 h
# Escherichia coli [3] = test: Antibacterial activity against Escherichia coli isolate HM580 isolated from colonic mucosal biopsies of patient with Crohn's disease after 24 hrs by Etest antibiotic concentration gradient method; type: functional; details: isolate HM580, 24 h
# Escherichia coli [4] = test: Antibacterial activity against Escherichia coli isolate HM605 isolated from colonic mucosal biopsies of patient with Crohn's disease after 24 hrs by Etest antibiotic concentration gradient method; type: functional; details: isolate HM605, 24 h
# Escherichia coli [5] = test: Antibacterial activity against Escherichia coli isolate HM605 isolated from colonic mucosal biopsies of patient with Crohn's disease
# Escherichia coli [6] = test: Antibacterial activity against gentamicin-treated internalized Escherichia coli isolate HM605 isolated from colonic mucosal biopsies of patient with Crohn's disease in mouse J774A1 cells assessed as intracellular killing of bacteria at […] ug/ml after 3 hrs; type: functional, J774.A1
# Escherichia coli [7] = test: Antibacterial activity against extracellular Escherichia coli isolate HM605 isolated from colonic mucosal biopsies of patient with Crohn's disease at 0.01 to 10 ug/ml after 3 hrs; type: functional, organism-based
# Escherichia coli [8] = test: Antibacterial activity against gentamicin-treated internalized Escherichia coli isolate HM605 in mouse J774A1 cells isolated from colonic mucosal biopsies of patient with Crohn's disease assessed as intracellular killing of bacteria at 10% compound Cmax after 3 hrs; type: functional, J774.A1
# Escherichia coli [9] = test: Antibacterial activity against gentamicin-treated internalized Escherichia coli isolate LF82 in mouse J774A1 cells isolated from chronic ileal lesions of patient with Crohn's disease assessed as intracellular killing of bacteria at 10% compound Cmax after 3 hrs; type: functional, J774.A1
# Escherichia coli [10] = test: Antibacterial activity against gentamicin-treated internalized Escherichia coli isolate HM580 in mouse J774A1 cells isolated from colonic mucosal biopsies of patient with Crohn's disease assessed as intracellular killing of bacteria at 10% compound Cmax after 3 hrs; type: functional, J774.A1
# Escherichia coli [11] = test: Antibacterial activity against gentamicin-treated internalized Escherichia coli isolate HM615 in mouse J774A1 cells isolated from colonic mucosal biopsies of patient with Crohn's disease assessed as intracellular killing of bacteria at 10% compound Cmax after 3 hrs; type: functional, J774.A1
# J774.A1 [12] = test: Cytotoxicity against mouse J774A1 cells assessed as macrophage number at […] ug/ml after 3 hrs by total cell protein assay; type: cell-based; details: j774.a1, 3 h
# Escherichia coli [13] = test: Antibacterial activity against Escherichia coli isolate HM615 isolated from colonic mucosal biopsies of patient with Crohn's disease after 24 hrs by Etest antibiotic concentration gradient method; type: functional; details: isolate HM615, 24 h
# Escherichia coli [14] = test: Antibacterial activity Escherichia coli isolate HM413 isolated from ileo-colonic mucosal biopsies of patient with Crohn's disease after 24 hrs by Etest antibiotic concentration gradient method; type: functional; details: isolate HM413, 24 h
# Escherichia coli [15] = test: Antibacterial activity Escherichia coli isolate HM419 isolated from ileo-colonic mucosal biopsies of patient with Crohn's disease after 24 hrs by Etest antibiotic concentration gradient method; type: functional; details: isolate HM419, 24 h
# Escherichia coli [16] = test: Antibacterial activity against Escherichia coli isolate HM95 isolated from ileal mucosal biopsies of patient with Crohn's disease after 24 hrs by Etest antibiotic concentration gradient method; type: functional; details: isolate HM95, 24 h
# Escherichia coli [17] = test: Antibacterial activity against mucosa-associated Escherichia coli isolate HM428 isolated from patient with irritable bowel syndrome or sporadic polyps after 24 hrs by Etest antibiotic concentration gradient method; type: functional; details: isolate HM428, 24 h
# Escherichia coli [18] = test: Antibacterial activity against mucosa-associated Escherichia coli isolate HM454 isolated from patient with irritable bowel syndrome or sporadic polyps after 24 hrs by Etest antibiotic concentration gradient method; type: functional; details: isolate HM454, 24 h
# Escherichia coli [19] = test: Antibacterial activity against mucosa-associated Escherichia coli isolate HM456 isolated from patient with irritable bowel syndrome or sporadic polyps after 24 hrs by Etest antibiotic concentration gradient method; type: functional; details: isolate HM456, 24 h
# Escherichia coli [20] = test: Antibacterial activity against Escherichia coli K-12 after 24 hrs by Etest antibiotic concentration gradient method; type: functional; details: K-12, 24 h
# J774.A1 [21] = test: Cytotoxicity against mouse J774A1 cells assessed as release of adenylate kinase at 100 ug/ml after 3 hrs […] relative to control; type: cell-based; details: j774.a1, 3 h
# Escherichia coli [22] = test: Antibacterial activity against Escherichia coli ATCC 25922 after 24 hrs by Etest antibiotic concentration gradient method; type: functional, organism-based
# [23] = Cmax in immunodeficiency virus-infected patient at 800 mg, po by high-pressure liquid chromatography; details: human, in vivo
# Escherichia coli [24] = test: Antibacterial activity against mucosa-associated Escherichia coli isolates isolated from patients with Crohn's disease by disk diffusion method; type: functional
# Escherichia coli [25] = test: Antibacterial activity against gentamicin-treated internalized Escherichia coli isolate HM605 isolated from colonic mucosal biopsies of patient with Crohn's disease in mouse J774A1 cells assessed as intracellular killing of bacteria at 1.7 ug/ml after 3 hrs; type: functional, J774.A1
# J774.A1 [26] = test: Cytotoxicity against mouse J774A1 cells assessed as macrophage number at 1.7 ug/ml after 3 hrs by total cell protein assay; type: cell-based; details: j774.a1, 3 h
# [27] = Cmax in patient with Billroth-II gastrectomy at 250 mg, po; type: ADME, organism-based; design: dose 250 mg, route oral; details: human, in vivo
# [28] = Cmax in healthy human at 160 mg administered orally; details: in vivo, po
# Homo sapiens = species on record: Homo sapiens; test: Cmax in human; type: ADME, organism-based; details: in vivo
# Escherichia coli [29] = test: Antibacterial activity against gentamicin-treated internalized Escherichia coli isolate HM605 in mouse J774A1 cells isolated from colonic mucosal biopsies of patient with Crohn's disease assessed as intracellular killing of bacteria at 18 ug/ml after 3 hrs; type: functional, organism-based; details: J774.A1
# Escherichia coli [30] = test: Antibacterial activity against gentamicin-treated internalized Escherichia coli isolate HM605 in mouse J774A1 cells isolated from colonic mucosal biopsies of patient with Crohn's disease assessed as intracellular killing of bacteria at 18 ug/ml after 6 hrs; type: functional, organism-based; details: J774.A1
# Escherichia coli [31] = test: Antibacterial activity against gentamicin-treated internalized Escherichia coli isolate HM605 in mouse J774A1 cells isolated from colonic mucosal biopsies of patient with Crohn's disease assessed as reduction in intracellular bacterial viability at 18 ug/ml after 24 hrs; type: functional, organism-based; details: J774.A1
Compound,MIC (Escherichia coli [2]),MIC (Escherichia coli [3]),MIC (Escherichia coli [4]),MBC (Escherichia coli [5]),Activity (Escherichia coli [7]),Activity (Escherichia coli [8]),Activity (Escherichia coli [9]),Activity (Escherichia coli [10]),Activity (Escherichia coli [11]),MIC (Escherichia coli [13]),MIC (Escherichia coli [14]),MIC (Escherichia coli [15]),MIC (Escherichia coli [16]),MIC (Escherichia coli [17]),MIC (Escherichia coli [19]),Activity (J774.A1 [21]),Activity (Escherichia coli [22]),Activity (Escherichia coli [24]),further results
CO[C@H]1/C=C/O[C@@]2(C)Oc3c(C)c(O)c4c(O)c(c(/C=N/N5CCN(C)CC5)c(O)c4c3C2=O)NC(=O)/C(C)=C\C=C\[C@H](C)[C@H](O)[C@@H](C)[C@@H](O)[C@@H](C)[C@H](OC(C)=O)[C@@H]1C [RIFAMPIN],≥ 4 µg/mL,≥ 4 µg/mL,6 µg/mL,3 µg/mL,Active,32.6%,32.8%,35.8%,80.2%,≥ 4 µg/mL,2 µg/mL,≥ 4 µg/mL,≥ 4 µg/mL,≥ 4 µg/mL,≥ 4 µg/mL,90%,–,–,Activity (Escherichia coli [1]): 0%; Activity (Escherichia coli [6]): 85.1%; Activity (J774.A1 [12]): 94.4; MIC (Escherichia coli [18]): ≥ 4 µg/mL; MIC (Escherichia coli [20]): 3 µg/mL
Cc1cc(NS(=O)(=O)c2ccc(N)cc2)no1 [SULFAMETHOXAZOLE],–,–,> 1020 µg/mL,–,–,39.8%,63.2%,58.7%,71.5%,–,–,–,–,–,–,90%,Active,–,Cmax [23]: 40000 ng/mL
CN(C)[C@@H]1C(O)=C(C(N)=O)C(=O)[C@@]2(O)C(O)=C3C(=O)c4c(O)cccc4[C@@](C)(O)[C@H]3C[C@@H]12 [TETRACYCLINE],≤ 4 µg/mL,≤ 4 µg/mL,2 µg/mL,1 µg/mL,Active,44.8%,64.2%,62.4%,69.6%,≤ 4 µg/mL,≤ 4 µg/mL,≤ 4 µg/mL,≤ 4 µg/mL,≤ 4 µg/mL,≤ 4 µg/mL,90%,Active,67%,Activity (Escherichia coli [25]): 62.8%; Activity (J774.A1 [26]): 55.9; Cmax [27]: 1700 ng/mL
COc1cc(Cc2cnc(N)nc2N)cc(OC)c1OC [TRIMETHOPRIM],≤ 4 µg/mL,≤ 4 µg/mL,> 32 µg/mL,100 µg/mL,Active,49.1%,50.2%,46.9%,61.7%,≤ 4 µg/mL,≤ 4 µg/mL,≤ 4 µg/mL,≤ 4 µg/mL,≤ 4 µg/mL,≤ 4 µg/mL,90%,Active,100%,Cmax [28]: 2300 ng/mL
GENTAMICIN [listing 1 of 2 here],–,–,–,–,–,–,–,–,–,–,–,–,–,–,–,90%,–,–,Cmax (Homo sapiens): 18000 ng/mL
GENTAMICIN [listing 2 of 2 here],–,–,–,–,–,–,–,–,–,–,–,–,–,–,–,–,–,100%,Activity (Escherichia coli [29]): 7.8%; Activity (Escherichia coli [30]): 0.3%; Activity (Escherichia coli [31]): 54.8%
